Measured values: patent publication US20030139424A1, “Use” (priority 2001, published 2003)

System: ob/ob mice
Test: Effect on food intake (and total motor activity) by single dose subcutaneous administration in ob/ob mice, operant test cage system (Eater meter)
Type: in vivo, mouse
Conditions: male ob/ob mice
Excerpt: Effect on Food Intake of N,N-Dimethyl 2-[1-(benzenesulphonyl)-5-methoxy-1H-indol-3-yl]ethylamine by single dose subcutaneous administration in ob/ob mice.
Obese (ob/ob) mouse is selected as the primary animal model for screening as this mutant mouse consumes high amounts of food resulting in a high signal to noise ratio. To further substantiate and compare efficacy data, the effect of the compounds on food consumption is also studied in wild type (C57BL/6J) mice. The amount of food consumed during 15 hours of infusion of compounds is recorded.
Male mice (obese C57BL/6JBom-Lep^ob and lean wild-type C57B1/6JBom; Bomholtsgaard, Denmark) 8-9 weeks with an average body weight of 50 g (obese) and 25 g (lean) are used in all the studies. The animals are housed singly in cages at 23±1° C., 40-60% humidity and have free access to water and standard laboratory chow. The 12/12-h light/dark cycle is set to lights off at 5 p.m. The animals are conditioned for at least one week before start of study.
The test compound, N,N-Dimethyl 2-[1-(benzenesulphonyl)-5-methoxy-1H-indol-3-yl]ethylamine, was dissolved in 25% Polyetylenglykol 400 (PEG 400) plus 0.1% Tween 80. +sodium actetate till pH 5. Doses of […] were used. […]
The animals were divided into four groups containing 8 animals each and treated with vehicle plus three dosages of the test compound. Food consumption, total motor activity and water consumption were measured continuously for 22 h following start of recording in a computer-assisted operant test cage system (Eater meter). […] On the fourth day the animals were treated with test compound just before dark onset (5 pm) and data recorded cumulatively for 3 h, 6 h, 12 h and 21 h. Water consumption during 22 h was also measured by weighing the days before and after treatment.
Animals were randomized according to body weight and treatment assigned in a cage- and room-wise order. […] Spillage at other time points were calculated proportionally to that of the 22 h spillage. The values are expressed as mean±SEM both as the change in gram from basal level and as percent of basal level. […]

`COc1ccc2c(c1)c(CCN(C)C)cn2S(=O)(=O)c1ccccc1` [N,N-Dimethyl 2-[1-(benzenesulphonyl)-5-methoxy-1H-indol-3-yl]ethylamine] was tested, and the “decrease of food intake” value (single sc dose 10, 30, 50 mg salt/kg, at 6 h and 12 h following administration, significant, FIG. 1) was 15-20%, the “dose dependence of food intake effect” value (single sc dose 10, 30, 50 mg salt/kg, all doses overlapped) was “not dose-dependent” and the “approximate minimum effective dose for food intake” value (single sc dose, borderline statistical significance of 15-20% inhibition) was roughly 10 mg/kg.
